Results published in EPA's ToxValDB 9.5.
In brackets after ≈: the same amount, converted by molar mass. Several values for one entry are separate records, joined by “and”; a condition that tells them apart may be missing. Equal values may be shown once. One block for each compound: values may come before it.

What was measured:
Bibionidae = details: chronic/long-term
Bovidae = details: oral
Danio rerio = details: acute; duration: 96 hours; mortality
Felidae = details: acute; oral; diet; Cat; neurology
Gallus gallus = details: subchronic
Oncorhynchus mykiss = details: for LC50: acute, duration: 96 hours; for NOEC: chronic/long-term
Oryctolagus sp. = details: for NOEL: reproduction developmental, reproduction
Raphanus sp. = details: acute; duration: 19 days; seedling emergence
Rattus norvegicus = details: for LD50: acute
Sus scrofa = details: oral, diet, Not specified
Capra sp. = details: subchronic; duration: 56 days; food consumption
Ovis sp. = details: subchronic; duration: 3 months; oral; diet; food consumption
Anas platyrhynchos = details: oral; for LD50: acute, unspecified
Apis mellifera = details: acute, duration: 48 hours, mortality
Daphnia magna = details: chronic/long-term; duration: 21 days
Pimephales promelas = details: acute; duration: 96 hours; mortality
Tagia sp. = details: acute; duration: 14 days; mortality
Homo sapiens = details: clinical
Anatidae = details: subchronic; duration: 41 days; oral; feed; M/F; no effects
Pontoscolex corethrurus = details: acute; duration: 7 days; body weight
Evynnis japonica = details: acute; duration: 12 hours; mortality
Metacarcinus magister = details: chronic/long-term; duration: 200 hours; mortality
Lepomis macrochirus = details: acute; duration: 96 hours; mortality
Typhlodromus pyri = assay: LR50; higher = less toxic; details: not reported; mortality
[1] = chronic/long-term; development
[2] = reproduction developmental, no effects

SMILES: CC[C@@H](C(=O)[C@@H](C)[C@@H](O)[C@H](C)[C@@H]1O[C@@H]([C@@H](CC)C(=O)[O-])CC[C@@H]1C)[C@H]1O[C@]2(C=C[C@@H](O)[C@]3(CC[C@@](C)([C@H]4CC[C@](O)(CC)[C@H](C)O4)O3)O2)[C@H](C)C[C@@H]1C.[Na+] [Salinomycin sodium]
NOEC (Bibionidae; other): 6.6 mg/kg | LEL (Bovidae; subchronic, duration: 11 weeks, diet, morphology): 90 mg/kg-day | NOAEL (Canidae; acute, duration: 1 days, oral, gavage, Beagle, clinical signs): 0.5 mg/kg-day | NOAEL (Canidae; chronic, duration: 1 years, oral, diet, Dog Other, neurology): 0.5 mg/kg-day | NOAEL (Canidae; chronic, duration: 12 months, Dog Other): 0.5 mg/kg-day | NOEL (Canidae; chronic, duration: 12 months, oral, capsule, M/F, Dog Other, neurology): 0.5 mg/kg-day | NOEL (Canidae; repeat dose other, oral, capsule, Dog Other, clinical signs): 0.625 mg/kg-day | LC50 (Danio rerio): 6.98 µg/mL | LEL (Equus caballus; other, oral, feed, clinical signs): ≥ 0.12 mg/kg | LEL (Felidae): ≥ 16 mg/kg-day | LEL (Gallus gallus; duration: 5 weeks, oral, diet, M, body weight): 140 mg/kg-day | LEL (Gallus gallus; duration: 12 weeks, oral, diet, body weight): 60 mg/kg-day | LEL (Gallus gallus; duration: 42 days, organ weight): 140 mg/kg-day | LEL (Gallus gallus; duration: 56 days, growth): 150 mg/kg-day | LC50 (Oncorhynchus mykiss; mortality): 1.7 µg/mL and 1.14 µg/mL | NOEL (Oryctolagus sp.; duration: 24 days, oral, diet, F): 0.5 mg/kg-day | NOEL (Oryctolagus sp.): 0.5 mg/kg-day | LEL (Oryctolagus sp.; subchronic, duration: 6 weeks, oral, diet, food consumption): ≤ 25 mg/kg-day | LC50 (Raphanus sp.): 2.6 mg/kg | LOEL (Rattus norvegicus; chronic, duration: 2 years, oral, diet, M/F, Wistar, clinical chemistry): 1.5 mg/kg-day | NOAEL (Rattus norvegicus; subchronic, duration: 90 days, oral, diet, M/F, Sprague-Dawley, organ weight): 0.6 mg/kg-day | NOAEL (Sus scrofa; chronic, duration: 14 weeks, M/F, no effects): ≥ 5 mg/kg-day

LEL (Capra sp.): 300 mg/kg-day | LEL (Equus caballus; acute, no effects): 0.5 mg/kg
SMILES: Cn1cnc2c1c(=O)[nH]c(=O)n2C [Theobromine]
NOAEL (Oryctolagus sp.; developmental, development): 21 mg/kg-day | NOAEL (Ovis sp.): 35 mg/kg-day | NOAEL (Sus scrofa; subchronic, growth): 7 mg/kg-day

SMILES: CCCCCCCCCCO [1-Decanol]
LD50 (Anas platyrhynchos; mortality): > 4640 mg/kg-day | LC50 (Anas platyrhynchos; short-term, feed, mortality): > 2550 mg/kg-day | LD50 (Apis mellifera; dermal): > 13.8 µg/piece | NOEC (Daphnia magna): 0.51 mg/L | NOEC (Oncorhynchus mykiss; duration: 28 days, growth): 0.0064 mg/L | LC50 (Pimephales promelas): 2.4 µg/mL (≈ 15.2 µM) | LD50 (Rattus norvegicus; oral, mortality): 4720 mg/kg-day | NOAEL (Rattus norvegicus; [2]): 1000 mg/kg-day | LC50 (Tagia sp.): > 628 mg/kg

SMILES: [O-][Cl+2]([O-])[O-] [Chlorate]
NOEL (Homo sapiens; duration: 12 weeks, oral, drinking water, M, no effects): 0.036 mg/kg-day

SMILES: CC[C@@H](C(=O)O)[C@@H]1O[C@@H]([C@@H](C)[C@H](O)[C@H](C)C(=O)[C@H](CC)[C@H]2O[C@]3(C=C[C@@H](O)[C@]4(CC[C@@](C)([C@H]5CC[C@](O)(CC)[C@H](C)O5)O4)O3)[C@H](C)C[C@@H]2C)[C@@H](C)C[C@@H]1C [Narasin]
LEL (Anatidae): 280 mg/kg | NOEL (Bovidae; short-term, duration: 14 days, gavage, F, clinical signs): 0.5 mg/kg-day | NOAEL (Canidae; chronic, duration: 1 years, oral, capsule, M/F, Dog Other, histopathology: nonneoplastic): 0.5 mg/kg-day | LEL (Equus caballus; short-term, duration: 1 months, oral, feed, M/F, food consumption): 80 mg/kg | LC50 (Oncorhynchus mykiss; mortality): 2.23 µg/mL (≈ 2.91 µM) | LEL (Oryctolagus sp.; acute, Hungarian, clinical signs): ≥ 35 mg/kg-day | NOEC (Pontoscolex corethrurus): 4.3 mg/kg

SMILES: CC1=C(/C=C/C(C)=C/C=C/C(C)=C/C=C/C=C(C)/C=C/C=C(C)/C=C/C2=C(C)C(=O)CCC2(C)C)C(C)(C)CCC1=O [Canthaxanthin]
NOAEL (Homo sapiens; ophthalmoscopic examination): 0.25 mg/kg-day

SMILES: [Al+3].[Al+3].[O-2].[O-2].[O-2].[O-2].[O-2].[Si+4] [Aluminum oxide silicate  (Al2O(SiO4))]
LC50 (Evynnis japonica): 494 µg/mL | LC50 (Metacarcinus magister): 32000 µg/mL | NOEC (Oncorhynchus mykiss; duration: 30 days, mortality): 100 mg/L | LD50 (Rattus norvegicus; oral, mortality): > 5000 mg/kg

SMILES: Cc1cc(C2CC2)nc(Nc2ccccc2)n1 [Cyprodinil]
NOEC (Bibionidae; duration: 27 days): 80 mg/kg | NOEC (Bibionidae; duration: 28 days): 0.24 mg/L | NOEC (Daphnia magna): 0.0018 mg/L | LC50 (Lepomis macrochirus): 2.17 µg/mL (≈ 9.63 µM) | LC50 (Oncorhynchus mykiss; mortality): 1.35 µg/mL (≈ 5.99 µM) | NOEC (Oncorhynchus mykiss; duration: 21 days): 0.083 mg/L

SMILES: CC(C)[C@@H](C)[C@@H](O)[C@H](O)[C@@H](C)[C@H]1CC[C@H]2[C@@H]3COC(=O)[C@H]4C[C@H](O)[C@H](O)C[C@]4(C)[C@H]3CC[C@]12C
LD50 (Apis mellifera; dermal): > 10 µg/piece | LD50 (Apis mellifera; oral, unspecified): > 92.2 µg/piece | LC50 (Danio rerio): > 5 µg/mL | LD50 (Rattus norvegicus; oral, mortality): > 5000 mg/kg-day | NOEL (Rattus norvegicus; [2]): ≥ 1000 mg/kg-day | LR50 (Typhlodromus pyri): 0.28 g/ha

SMILES: CC(=O)O.CCCCCCCCCCCCN=C(N)N [Dodecylguanidine acetate]
NOAEL [1]: 45 mg/kg-day | LD50 (Anas platyrhynchos): 857 mg/kg-day | NOEL (Bird; reproductive): 17 mg/kg-day | LC50 (Bird; short-term, oral, feed): 208 mg/kg-day | LD50 (Rattus norvegicus): 851 mg/kg-day
